Source: PMC8119466, “A screen of FDA-approved drugs identifies inhibitors of protein tyrosine phosphatase 4A3 (PTP4A3 or PRL-3)” (Scientific Reports, 2021)
Where a name gives a salt, the structure may show the parent alone.

Legend:
Assay type in all cases: biochemical
Details in all cases: FDA-approved drug screen; compared to DMSO
recombinant PRL-1 = target: T1, recombinant PRL-1 (Homo sapiens, UniProt Q93096); assay: In vitro phosphatase assay (DiFMUP hydrolysis), PRL-1; also: test concentration or dose not given here
T1 construct: 6xHis (N, cleaved yes); made in house; host or cells: E. coli One Shot BL21 Star
T1 sequence (Q93096 1-173): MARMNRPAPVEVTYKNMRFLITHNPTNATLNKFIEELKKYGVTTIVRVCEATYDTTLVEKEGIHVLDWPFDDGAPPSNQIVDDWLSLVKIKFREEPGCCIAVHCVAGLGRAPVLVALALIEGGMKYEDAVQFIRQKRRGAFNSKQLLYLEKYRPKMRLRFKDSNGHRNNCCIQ

recombinant PRL-2 = target: T2, recombinant PRL-2 (Homo sapiens, UniProt Q12974); assay: In vitro phosphatase assay (DiFMUP hydrolysis), PRL-2;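 also: PRL-2 activity read as DiFMUP hydrolysis after 20 min at room temperature with drug, enzyme first pre-reduced at 4 °C for 20 min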
T2 construct: 6xHis (N, cleaved yes); made in house; host or cells: E. coli One Shot BL21 Star
T2 sequence (Q12974 1-167): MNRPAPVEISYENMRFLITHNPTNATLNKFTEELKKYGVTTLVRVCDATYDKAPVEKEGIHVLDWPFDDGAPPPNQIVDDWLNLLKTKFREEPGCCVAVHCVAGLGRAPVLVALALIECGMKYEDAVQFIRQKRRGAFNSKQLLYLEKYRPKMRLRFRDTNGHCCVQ

recombinant PRL-3 = target: T3, recombinant PRL-3 (Homo sapiens, UniProt O75365); assay: In vitro phosphatase assay (DiFMUP hydrolysis), PRL-3; also: test concentration or dose not given here
T3 construct: 6xHis (N, cleaved yes); made in house; host or cells: E. coli One Shot BL21 Star
T3 sequence (O75365 whole entry): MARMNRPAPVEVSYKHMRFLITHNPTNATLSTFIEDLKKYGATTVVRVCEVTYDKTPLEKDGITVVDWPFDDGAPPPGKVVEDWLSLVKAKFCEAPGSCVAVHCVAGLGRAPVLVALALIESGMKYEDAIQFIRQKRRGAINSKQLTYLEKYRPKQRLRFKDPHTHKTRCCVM

NC(=O)c1ccc(I)c([N+](=O)[O-])c1 [Iniparib (BSI-201)]
% Phosphatase Activity (compared to DMSO) PRL-1 (recombinant PRL-1): 107%
% Phosphatase Activity (compared to DMSO) PRL-2 (recombinant PRL-2): 112%
% Phosphatase Activity (compared to DMSO) PRL-3 (recombinant PRL-3): 78%

C[C@H](O)C(=O)Nc1c(I)c(C(=O)NC(CO)CO)c(I)c(C(=O)NC(CO)CO)c1I [Iopamidol]
% Phosphatase Activity (compared to DMSO) PRL-1 (recombinant PRL-1): 96%
% Phosphatase Activity (compared to DMSO) PRL-2 (recombinant PRL-2): 98%
% Phosphatase Activity (compared to DMSO) PRL-3 (recombinant PRL-3): 90%

CC(C)[N+]1(C)[C@@H]2CC[C@H]1C[C@@H](OC(=O)C(CO)c1ccccc1)C2 (stereo partly drawn) [Ipratropium Bromide]
% Phosphatase Activity (compared to DMSO) PRL-1 (recombinant PRL-1): 103%
% Phosphatase Activity (compared to DMSO) PRL-2 (recombinant PRL-2): 93%
% Phosphatase Activity (compared to DMSO) PRL-3 (recombinant PRL-3): 83%

CCCCC1=NC2(CCCC2)C(=O)N1Cc1ccc(-c2ccccc2-c2nnn[nH]2)cc1 [Irbesartan]
% Phosphatase Activity (compared to DMSO) PRL-1 (recombinant PRL-1): 95%
% Phosphatase Activity (compared to DMSO) PRL-2 (recombinant PRL-2): 87%
% Phosphatase Activity (compared to DMSO) PRL-3 (recombinant PRL-3): 84%

CCc1c2c(nc3ccc(OC(=O)N4CCC(N5CCCCC5)CC4)cc13)-c1cc3c(c(=O)n1C2)COC(=O)[C@]3(O)CC.Cl.O.O.O [Irinotecan HCl Trihydrate]
% Phosphatase Activity (compared to DMSO) PRL-1 (recombinant PRL-1): 4597%
% Phosphatase Activity (compared to DMSO) PRL-2 (recombinant PRL-2): 4207%
% Phosphatase Activity (compared to DMSO) PRL-3 (recombinant PRL-3): 4074%

CCc1c2c(nc3ccc(OC(=O)N4CCC(N5CCCCC5)CC4)cc13)-c1cc3c(c(=O)n1C2)COC(=O)[C@]3(O)CC [Irinotecan]
% Phosphatase Activity (compared to DMSO) PRL-1 (recombinant PRL-1): 4706%
% Phosphatase Activity (compared to DMSO) PRL-2 (recombinant PRL-2): 5728%
% Phosphatase Activity (compared to DMSO) PRL-3 (recombinant PRL-3): 3887%

Nc1nc(N)nc(-c2cc(Cl)ccc2Cl)n1 [Irsogladine]
% Phosphatase Activity (compared to DMSO) PRL-1 (recombinant PRL-1): 84%
% Phosphatase Activity (compared to DMSO) PRL-2 (recombinant PRL-2): 106%
% Phosphatase Activity (compared to DMSO) PRL-3 (recombinant PRL-3): 81%

Clc1ccc(C(Cn2ccnc2)OCc2c(Cl)cccc2Cl)c(Cl)c1 (stereo not drawn) [Isoconazole nitrate]
% Phosphatase Activity (compared to DMSO) PRL-1 (recombinant PRL-1): 112%
% Phosphatase Activity (compared to DMSO) PRL-2 (recombinant PRL-2): 110%
% Phosphatase Activity (compared to DMSO) PRL-3 (recombinant PRL-3): 89%

CCC(NC(C)C)C(O)c1ccc(O)c(O)c1 (stereo not drawn) [Isoetharine Mesylate]
% Phosphatase Activity (compared to DMSO) PRL-1 (recombinant PRL-1): 103%
% Phosphatase Activity (compared to DMSO) PRL-2 (recombinant PRL-2): 98%
% Phosphatase Activity (compared to DMSO) PRL-3 (recombinant PRL-3): 93%

NNC(=O)c1ccncc1 [Isoniazid]
% Phosphatase Activity (compared to DMSO) PRL-1 (recombinant PRL-1): 91%
% Phosphatase Activity (compared to DMSO) PRL-2 (recombinant PRL-2): 94%
% Phosphatase Activity (compared to DMSO) PRL-3 (recombinant PRL-3): 91%

CC(C)NCC(O)c1ccc(O)c(O)c1.Cl (stereo not drawn) [Isoprenaline HCl]
% Phosphatase Activity (compared to DMSO) PRL-1 (recombinant PRL-1): 114%
% Phosphatase Activity (compared to DMSO) PRL-2 (recombinant PRL-2): 124%
% Phosphatase Activity (compared to DMSO) PRL-3 (recombinant PRL-3): 94%

O=[N+]([O-])O[C@@H]1CO[C@H]2[C@@H]1OC[C@@H]2O [Isosorbide Mononitrate]
% Phosphatase Activity (compared to DMSO) PRL-1 (recombinant PRL-1): 91%
% Phosphatase Activity (compared to DMSO) PRL-2 (recombinant PRL-2): 85%
% Phosphatase Activity (compared to DMSO) PRL-3 (recombinant PRL-3): 81%

CC1=C(/C=C/C(C)=C/C=C/C(C)=C\C(=O)O)C(C)(C)CCC1 [Isotretinoin]
% Phosphatase Activity (compared to DMSO) PRL-1 (recombinant PRL-1): 72%
% Phosphatase Activity (compared to DMSO) PRL-2 (recombinant PRL-2): 71%
% Phosphatase Activity (compared to DMSO) PRL-3 (recombinant PRL-3): 57%

Cc1cc(NC(=O)C2=C(O)c3ccccc3S(=O)(=O)N2C)no1 [Isoxicam]
% Phosphatase Activity (compared to DMSO) PRL-1 (recombinant PRL-1): 91%
% Phosphatase Activity (compared to DMSO) PRL-2 (recombinant PRL-2): 91%
% Phosphatase Activity (compared to DMSO) PRL-3 (recombinant PRL-3): 84%

Cc1ccc(C(=O)N(CCCN)[C@@H](c2nc3cc(Cl)ccc3c(=O)n2Cc2ccccc2)C(C)C)cc1 [Ispinesib (SB-715992)]
% Phosphatase Activity (compared to DMSO) PRL-1 (recombinant PRL-1): 103%
% Phosphatase Activity (compared to DMSO) PRL-2 (recombinant PRL-2): 108%
% Phosphatase Activity (compared to DMSO) PRL-3 (recombinant PRL-3): 80%

COC(=O)C1=C(C)NC(C)=C(C(=O)OC(C)C)C1c1cccc2nonc12 (stereo not drawn) [Isradipine]
% Phosphatase Activity (compared to DMSO) PRL-1 (recombinant PRL-1): 94%
% Phosphatase Activity (compared to DMSO) PRL-2 (recombinant PRL-2): 74%
% Phosphatase Activity (compared to DMSO) PRL-3 (recombinant PRL-3): 71%

COc1ccc(C(=O)NCc2ccc(OCCN(C)C)cc2)cc1OC.Cl [Itopride hydrochloride]
% Phosphatase Activity (compared to DMSO) PRL-1 (recombinant PRL-1): 95%
% Phosphatase Activity (compared to DMSO) PRL-2 (recombinant PRL-2): 115%
% Phosphatase Activity (compared to DMSO) PRL-3 (recombinant PRL-3): 80%

COc1cc2c(cc1OC)CC(=O)N(CCCN(C)C[C@H]1Cc3cc(OC)c(OC)cc31)CC2.Cl [Ivabradine HCl]
% Phosphatase Activity (compared to DMSO) PRL-1 (recombinant PRL-1): 108%
% Phosphatase Activity (compared to DMSO) PRL-2 (recombinant PRL-2): 113%
% Phosphatase Activity (compared to DMSO) PRL-3 (recombinant PRL-3): 71%

CC(C)(C)c1cc(C(C)(C)C)c(NC(=O)c2c[nH]c3ccccc3c2=O)cc1O [Ivacaftor (VX-770)]
% Phosphatase Activity (compared to DMSO) PRL-1 (recombinant PRL-1): 95%
% Phosphatase Activity (compared to DMSO) PRL-2 (recombinant PRL-2): 87%
% Phosphatase Activity (compared to DMSO) PRL-3 (recombinant PRL-3): 77%
